Reference: ChEMBL document CHEMBL1201862, “PubChem BioAssay data set” (2004)
Activity calls are given as the source filed them.

Experiments:
[1] = system: Streptococcus sp. 'group A'; assay: growth inhibition of control SK(-) GAS strain, dose response, counter-screen for streptokinase expression inhibitor project, luminescence, kanamycin, BacTiterGlo, confirmation (AID 1900); type: functional, organism-based
Streptococcus = assay: Group A Streptococcus viability loss, dose response, counter-screen for streptokinase expression inhibitor project, luminescence, BacTiterGlo (AID 1915); type: functional, organism-based;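 further: potency for reduction of bacterial viability or growth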
Streptokinase A = target: T1, Streptokinase A (Streptococcus pyogenes serotype M1, UniProt P10520); assay: S. pyogenes streptokinase expression inhibitors, potency, dose response, plasminogen activation absorbance, OD405 (AID 1914); type: functional, Streptococcus pyogenes M1 GAS;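 further: secreted streptokinase activity via plasminogen activation per viability signal from cell pellet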
T1 sequence (P10520 whole entry): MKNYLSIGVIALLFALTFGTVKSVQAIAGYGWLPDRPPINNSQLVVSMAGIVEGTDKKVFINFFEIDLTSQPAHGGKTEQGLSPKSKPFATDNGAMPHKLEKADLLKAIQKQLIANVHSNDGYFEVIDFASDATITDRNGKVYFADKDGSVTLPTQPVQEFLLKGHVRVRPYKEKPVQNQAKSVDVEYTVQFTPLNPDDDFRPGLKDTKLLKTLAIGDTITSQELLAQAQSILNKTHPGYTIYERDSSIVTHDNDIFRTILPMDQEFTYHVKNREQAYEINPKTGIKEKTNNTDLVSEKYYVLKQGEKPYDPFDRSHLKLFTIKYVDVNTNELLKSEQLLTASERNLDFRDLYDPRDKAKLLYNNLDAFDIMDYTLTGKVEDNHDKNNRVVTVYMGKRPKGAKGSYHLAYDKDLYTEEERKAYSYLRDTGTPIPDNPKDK

Cytochrome P450 2C9 = Cytochrome P450 2C9 (Homo sapiens, UniProt P11712)
[2] = cytotoxicity toward NIH3T3 fibroblasts, dose response, counter-screen, cell-based, ATP luminescence, mouse fibroblasts (AID 2010); type: functional;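 further: cells exposed to compound for about 90 hours before reading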
[3] = inhibitors of intracellular T. cruzi replication, confirmation, NIH3T3 host cells, beta-gal luminescence (AID 2044); type: functional, cell-based;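 further: intracellular parasites grown in NIH/3T3 mouse fibroblasts as host cells; luminescent beta-galactosidase reporter signal from transgenic T. cruzi replicating inside host cells; inhibitors lower the luminescence signal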
Cytochrome P450 2C19 = Cytochrome P450 2C19 (Homo sapiens, UniProt P33261); assay: Cytochrome panel assay with activity outcomes. Panel member name: p450-cyp2c19 Compounds with AC50 equal or less than 10 uM are considered active; type: functional
[4] = target: T2, Heat shock factor protein 1 (Mus musculus, UniProt P38532); assay: inhibition of MG132-induced HSE-luciferase signal, confirmation, cell-based, NIH3T3, luminescence, dose retest (AID 2382); type: functional;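 further: NIH3T3 fibroblasts with HSF1-driven luciferase reporter stressed by proteasome inhibitor MG132; luminescence from HSF1-driven luciferase expression after 8 hours of MG132 stress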
T2 sequence (P38532 whole entry): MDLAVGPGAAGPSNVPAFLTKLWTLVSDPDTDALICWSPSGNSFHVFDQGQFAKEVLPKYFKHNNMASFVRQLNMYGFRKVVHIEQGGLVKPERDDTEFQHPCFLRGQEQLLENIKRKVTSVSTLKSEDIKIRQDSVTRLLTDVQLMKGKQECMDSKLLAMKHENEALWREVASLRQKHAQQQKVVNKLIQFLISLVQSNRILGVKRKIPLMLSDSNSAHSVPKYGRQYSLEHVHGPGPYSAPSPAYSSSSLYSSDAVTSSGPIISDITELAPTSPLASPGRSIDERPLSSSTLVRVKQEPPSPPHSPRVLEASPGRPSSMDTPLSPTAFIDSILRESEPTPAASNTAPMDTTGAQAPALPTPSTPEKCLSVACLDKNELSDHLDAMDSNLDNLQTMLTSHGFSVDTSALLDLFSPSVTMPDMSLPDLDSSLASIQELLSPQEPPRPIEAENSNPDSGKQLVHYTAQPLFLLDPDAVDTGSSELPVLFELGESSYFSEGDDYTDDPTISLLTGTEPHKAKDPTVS

Cytochrome P450 3A4 = Cytochrome P450 3A4 (Homo sapiens, UniProt P08684);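 further: CYP3A4 tested as one member of a cytochrome P450 panel screen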
Chain of Cytochrome P450 3A4 (P08684 whole entry): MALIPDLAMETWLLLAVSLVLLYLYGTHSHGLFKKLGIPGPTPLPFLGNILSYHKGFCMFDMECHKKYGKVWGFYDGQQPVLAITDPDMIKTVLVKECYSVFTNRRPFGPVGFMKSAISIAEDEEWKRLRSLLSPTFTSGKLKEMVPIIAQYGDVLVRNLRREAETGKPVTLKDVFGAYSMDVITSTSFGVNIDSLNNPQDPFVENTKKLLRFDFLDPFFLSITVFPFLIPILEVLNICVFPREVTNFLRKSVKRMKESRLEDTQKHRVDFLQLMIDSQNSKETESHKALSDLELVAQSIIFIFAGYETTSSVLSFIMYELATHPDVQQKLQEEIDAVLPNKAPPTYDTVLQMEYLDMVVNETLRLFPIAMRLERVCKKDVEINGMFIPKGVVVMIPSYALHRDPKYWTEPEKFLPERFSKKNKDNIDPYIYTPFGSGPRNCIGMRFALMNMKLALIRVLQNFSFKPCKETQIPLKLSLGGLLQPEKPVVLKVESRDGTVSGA

Chain of Cytochrome P450 2C19 (P33261 whole entry): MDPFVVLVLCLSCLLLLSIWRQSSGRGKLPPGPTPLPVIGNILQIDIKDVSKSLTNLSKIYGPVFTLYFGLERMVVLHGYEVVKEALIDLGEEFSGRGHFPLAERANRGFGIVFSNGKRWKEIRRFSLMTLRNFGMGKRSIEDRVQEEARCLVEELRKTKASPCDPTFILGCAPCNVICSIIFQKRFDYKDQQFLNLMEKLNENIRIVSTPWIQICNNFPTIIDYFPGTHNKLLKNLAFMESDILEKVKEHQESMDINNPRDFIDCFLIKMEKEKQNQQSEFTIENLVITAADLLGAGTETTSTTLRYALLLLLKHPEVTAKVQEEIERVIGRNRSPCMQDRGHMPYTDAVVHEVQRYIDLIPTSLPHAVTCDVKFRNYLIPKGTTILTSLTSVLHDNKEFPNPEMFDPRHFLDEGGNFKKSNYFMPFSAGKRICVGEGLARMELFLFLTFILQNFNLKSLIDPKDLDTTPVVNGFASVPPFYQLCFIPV
Chain of Cytochrome P450 2C9 (P11712 whole entry): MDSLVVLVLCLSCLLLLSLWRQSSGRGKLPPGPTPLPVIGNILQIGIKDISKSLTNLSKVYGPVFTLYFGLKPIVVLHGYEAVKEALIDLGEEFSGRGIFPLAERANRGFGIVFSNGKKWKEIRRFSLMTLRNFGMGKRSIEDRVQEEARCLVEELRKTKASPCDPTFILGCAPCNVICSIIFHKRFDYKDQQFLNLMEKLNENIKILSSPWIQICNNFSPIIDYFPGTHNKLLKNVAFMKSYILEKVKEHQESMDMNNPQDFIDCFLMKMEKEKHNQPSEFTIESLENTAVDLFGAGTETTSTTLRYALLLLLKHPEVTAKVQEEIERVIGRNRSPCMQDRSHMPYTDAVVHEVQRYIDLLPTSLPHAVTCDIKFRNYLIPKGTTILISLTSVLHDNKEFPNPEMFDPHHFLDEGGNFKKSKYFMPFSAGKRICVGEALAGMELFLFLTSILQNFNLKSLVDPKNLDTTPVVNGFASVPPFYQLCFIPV

For `CNC(=O)C(=O)NCC1OCCN1S(=O)(=O)c1ccc(OC)c(OC)c1` (stereo unspecified), the EC50 [1] was > 150 µM (not active), the EC50 (Streptococcus) was > 150 µM (not active) and the EC50 (Streptokinase A) was > 150 µM (not active).
With `CCOc1cccc(N(C(=O)c2ccco2)C(C(=O)NC2CCCC2)c2cccnc2)c1` (stereo unspecified) the EC50 [1] was > 150 µM (not active), the EC50 (Streptococcus) was > 150 µM (not active) and the EC50 (Streptokinase A) was > 150 µM (not active).
For `O=C(c1cnccn1)N1CCC2(CC1)CN(Cc1ccncc1)C2`, the AC50 (Cytochrome P450 2C9) was 31.6 µM (inconclusive).
With `O=C(Nc1cc(Sc2ccccn2)cc([N+](=O)[O-])c1)c1cccc(Cl)c1` the EC50 [2] was > 60 µM (not active) and the EC50 [3] was 0.625 µM (active).
With `COC(=O)[C@H](Cc1ccccc1)NC(=O)[C@@H](C)CO` the AC50 (Cytochrome P450 2C9) was 3.98 µM (inconclusive).
With `Oc1cc(CN2COc3ccccc32)c(O)cc1CNC1CCCCC1` the AC50 (Cytochrome P450 2C9) was 6.31 µM (inconclusive) and the AC50 (Cytochrome P450 2C19; read-out: AC50) was 1.26 µM (inconclusive).
In the case of `O=C(O)CSc1ccn(Cc2ccccc2)c1`, the AC50 (Cytochrome P450 2C19) is reported as “inconclusive”.
For `CCCCCC(=O)NNC(=O)c1c(O)c2ccccc2n(CC)c1=O`, the EC50 [1] was 7.72 µM (active), the EC50 (Streptococcus) was 19.1 µM (active) and the EC50 (Streptokinase A) was > 50 µM (not active).
In the case of `Cn1ncc(Cl)c1C(=O)N1CCC2(CC1)OCCO2`, the EC50 [1] is reported as > 150 µM (not active), the EC50 (Streptococcus) is reported as > 150 µM (not active) and the EC50 (Streptokinase A) is reported as > 150 µM (not active).
For `C[C@]12CC[C@@H]3C(=CCc4cc(O)ccc43)[C@@H]1CCC2=O`, the AC50 (Cytochrome P450 2C19; read-out: AC50) was 7.94 µM (inconclusive).
In the case of `Clc1ccc(COn2c(-c3ccc(Cl)cc3)nc3ccccc32)cc1`, the EC50 [1] is reported as 8.35 µM (active), the EC50 (Streptococcus) is reported as 10.8 µM (active) and the EC50 (Streptokinase A) is reported as > 50 µM (not active).
In the case of `NS(=O)(=O)c1ccc(/N=N\c2ccc(O)c(C(=O)O)c2)cc1`, the AC50 (Cytochrome P450 2C9) is reported as 1 µM (inconclusive).
For `Cc1ccc(NC(=O)C2CCN(S(C)(=O)=O)CC2)cc1`, the AC50 (Cytochrome P450 2C19; read-out: AC50) was 20 µM (inconclusive).
For `CN1C(C(=O)Nc2ccc(OC(F)(F)F)cc2)=CC(c2cccs2)=NS1(=O)=O`, the EC50 [4] was 62.2 µM (active).
In the case of `O=C(CCc1nc(-c2cccs2)no1)NCc1ccc(F)cc1Cl`, the EC50 [4] is reported as > 195 µM (not active).
In the case of `O=S(=O)(CCc1nc2ccccc2[nH]1)c1ccc(Cl)cc1`, the EC50 [4] is reported as > 195 µM (not active).
In the case of `CC1=NN(C(N)=S)C(=O)C1N=Nc1c(C)cc(C)cc1C` (stereo unspecified), the EC50 [1] is reported as 5.14 µM (active), the EC50 (Streptococcus) is reported as > 150 µM (not active) and the EC50 (Streptokinase A) is reported as > 150 µM (not active).
For `COc1ccc(NC(=O)CN(C)S(=O)(=O)c2ccc(Cl)cc2)c([N+](=O)[O-])c1`, the AC50 (Cytochrome P450 3A4) was 1.78 µM (inconclusive).
In the case of `CCN(CC)c1ccc(CNc2nc3ccccc3n2CCN2CCOCC2)cc1`, the EC50 [4] is reported as > 195 µM (not active).
With `c1ccc(C(NCCNC(c2ccccc2)c2ccccc2)c2ccccc2)cc1` the EC50 [1] was 1.51 µM (active), the EC50 (Streptococcus) was 20.8 µM (active) and the EC50 (Streptokinase A) was 12 µM (active).
For `COc1ccc(C(=O)N2CCC3(CCN(Cc4ccncc4)CC3)CC2)cc1`, the AC50 (Cytochrome P450 2C9) was 7.94 µM (inconclusive).
In the case of `CC(=O)OCC1=C(C(=O)O)N2C(=O)C(NC(=O)Cn3nc(C(F)F)c(Cl)c3C)C2SC1` (stereo unspecified), the EC50 [1] is reported as < 0.06 µM (active) and the EC50 (Streptococcus) is reported as 0.111 µM (active).
With `CN(C)C(=O)CSc1nnc(O)nc1O` the EC50 [4] was > 195 µM (not active).
In the case of `COc1ccc(C(=O)C2CCCN(Cc3cnc(N4CCOCC4)s3)C2)c(OC)c1` (stereo unspecified), the EC50 [2] is reported as > 60 µM (not active) and the EC50 [3] is reported as 0.991 µM (active).
With `CCC(=O)n1nc(-c2cccnc2)nc1NCc1cccs1` the EC50 [4] was > 195 µM (not active).
With `COc1ccc(OC)c(NC(=O)NCc2cccnc2)c1` the EC50 [1] was > 150 µM (not active), the EC50 (Streptococcus) was > 150 µM (not active) and the EC50 (Streptokinase A) was > 150 µM (not active).
With `CCn1cnc2c1c(=O)n(CC(=O)Nc1cc(C)on1)c(=O)n2Cc1ccccc1` the EC50 [1] was > 150 µM (not active), the EC50 (Streptococcus) was > 150 µM (not active) and the EC50 (Streptokinase A) was > 150 µM (not active).
For `COC(=O)c1cc(C(=O)Nc2ccc(S(=O)(=O)NC(C)(C)C)cc2)cc([N+](=O)[O-])c1`, the EC50 [2] was > 60 µM (inconclusive) and the EC50 [3] was 0.797 µM (active).
